Like-named read-outs stand apart in the source and are kept apart here. Where a SMILES comes first, the peptide text is derived from it. Where no end group is shown, it is not given here. [ ]: non-standard residue; d: D form. The star is where a group is joined. PEG4 = NCCOCCOCCOCCOCCC(=O)O; Piperidide = C1CCN(*)CC1
Tests used:
HEK-293 normal cell line = assay: cells; type: cell-based; conditions: 24 h
Procedure: (§1) MTT assay was conducted as previously described.^[ [44] ^] Tumor cell lines (NCI‐H460, NCI‐H838, HT‐1080, MCF‐7, PC‐3, U‐251‐MG, and U‐87 MG) were seeded in 96‐well plates at a density of 8000 cells per well in a volume of 100 µL and cultured for 24 h. Normal cell lines (HaCaT, HMEC‐1, MRC‐5, and HEK‐293) were seeded in 96‐well plates at a density of 10 000 cells per well in a volume of 100 µL and cultured for 48 h. After that, only tumor cell lines were starved with 100 µL of SFM for a further 4–6 h. Subsequently, cells were treated with 100 µL of compound solutions with different concentrations for 24 h. Cells treated with SFM and 0.5% DMSO in SFM served as blank control and growth control, respectively. Ten µL of MTT solution (5 mg mL^−1) was added to each well, followed by an additional incubation period of 2 h for tumor cells and 4 h for normal cells. Finally, the solvent in each well was swapped with 100 µL of DMSO to dissolve the formazan crystals. The absorbance was measured by the plate reader at 570 nm.
(§2) The cell viability was calculated (1) Cellviability%=ODSamplegroup−ODBlank/ODGrowthgroup−ODBlank×100%

H460 cell line [1] = assay: cells; type: cell-based; conditions: 24 h
Procedure: as §1, §2

erythrocytes = type: cell-based; conditions: red cells of horse, 2 h
Procedure: Defibrinated horse blood (1 mL) was washed 3 times with 0.9% NaCl solution to remove plasma and then resuspended in 20 mL of 0.9% NaCl solution to obtain a red blood cell (RBC) suspension. Aliquots of the RBC suspension (100 µL) were incubated with 100 µL of compound solutions at concentrations ranging from 100 to 1.5625 µM (twofold serial dilution) for 2 h at 37 °C. RBCs treated with 0.9% NaCl solution and 1% Triton X‐100 solution served as blank and positive controls, respectively. Subsequently, the samples were centrifuged at 900 × g for 10 min, and the absorbance of the supernatant was measured at 570 nm.
The hemolysis ratio was calculated as (2) Hemolysis%=ODSamplegroup−ODBlank/ODPositivegroup−ODBlank×100%

MRC-5 normal cell line = type: cell-based; conditions: 24 h
Procedure: as §1, §2

HaCaT normal cell line = type: cell-based; conditions: 24 h
Procedure: as §1, §2

HT-1080 cell line = type: cell-based; conditions: 24 h
Procedure: as §1, §2

HMEC-1 normal cell line = type: cell-based; conditions: 24 h
Procedure: as §1, §2

H838 cell line = type: cell-based; conditions: 24 h
Procedure: as §1, §2

[2] = Compound remaining evaluation in human serum; type: in vitro ADME; conditions: 37 °C, n = 2
Procedure: Compound solutions (50 µL, 3 mM) were mixed with human serum (50 µL) and incubated for 0, 2, 4, 6, 12, and 24 h at 37 °C. Ethanol (250 µL) was added to precipitate serum proteins, and the samples were centrifuged at 14 000 × g for 20 min at 4 °C. Subsequently, 150 µL of supernatant of each sample was analyzed with analytical HPLC and ESI‐MS/MS. HPLC condition: gradient: 100% solution A to 0% solution A from 0 to 60 min; flow rate: 1 mL min^−1; detector wavelength: 214 nm. Each sample had two replicates.
The compound remaining ratio was calculated as (7) Compoundremaining%=CompoundPeakAreanotat0h/CompoundPeakAreaat0h×100%

[3] = test system: Paclitaxel-resistance (DR-PTX) H460 cell line; type: cell-based; conditions: 24 h
Procedure: as §1
(§3) Wild type H460 cells were cultured in a T‐75 flask and exposed to 30 µM of cisplatin. Cells were passed when the confluency reached 90%. The IC50 value of cisplatin on this cell line was evaluated every two passages. After the IC50 value was higher than 500 µM, the cultured medium was changed to normal CGM, and the cell line was cultured for another three passages. The IC50 value was evaluated again to make sure the resistance was stable. The other three resistance cell lines establishment process was similar. […] Parental NCI‐H460 cells were exposed to 10 µM 5‐fluorouracil, 2.5 µM paclitaxel, or 2.5 µM etoposide to generate 5‐fluorouracil‐resistant, paclitaxel‐resistant, and etoposide‐resistant cell lines, respectively.

[4] = test system: 5-Fluorouracil-resistance H460 cell line; type: cell-based; conditions: 24 h
Procedure: as §1, §3

[5] = test system: Cisplatin-resistance H460 cell line; type: cell-based; conditions: 24 h
Procedure: as §1, §3

[6] = test system: Etoposide-resistance (DR-EPT) H460 cell line; type: cell-based; conditions: 24 h
Procedure: as §1, §3

H460 cell line [7] = type: cell-based; conditions: 24 h
Procedure: as §1
The antimicrobial stability evaluation was determined in the presence of physiological concentrations of serum. Twenty five µL of compound solutions with the concentration of 3 mM and 25 µL of human serum were mixed. The mixture was incubated for 0, 2, 4, 6, 12, 24 h at 37 °C and then incubated for 15 min at 60 °C to inactivate the enzymes. […]

[8] = test system: Galleria mellonella larvae; assay: In vivo safety evaluation in G. mellonella larvae
Procedure: G. mellonella larvae (Livefoods Direct Ltd., Yorkshire, UK) were used to assess the in vivo safety of peptides. Experiments were conducted on larvae (250 ± 25 mg) incubated at 37 °C. Ten µL of compound 270 solutions with the final concentrations of 50, 80, and 120 µM were injected into the hemolymph via the second pair of prolegs (counting from the head). Control groups were injected with an equal volume of PBS. Larval survival and body weight were monitored every 1 day for a total of 5 days.

Row | Molecule | IC50 (HEK-293 normal cell line) [µM] | IC50 (H460 cell line [1]) [µM] | HC10 (concentration causing 10% of erythrocytes lysis) (erythrocytes) [µM] | IC50 (MRC-5 normal cell line) [µM] | IC50 (HaCaT normal cell line) [µM] | IC50 (HT-1080 cell line) [µM] | IC50 (HMEC-1 normal cell line) [µM] | IC50 (H838 cell line) [µM] | IC50 [3] [µM] | IC50 [4] [µM] | IC50 [5] [µM] | IC50 [6] [µM] | also measured
1 | FFPKIFDDLSSILPKIL-NH2 [compound 266] | > 100 | > 100 | >100 | > 100 | > 100 | > 100 | > 100 | > 100 |  |  |  |  | 
2 | FFPKIFDDLFSILPKIL-NH2 [compound 228] | 13.8 ± 1.42 | 17.5 ± 0.91 | 14.57 | 34.1 ± 2.32 | 34 ± 2.66 | 30.5 ± 6.05 | 30.7 ± 3.14 | 26.4 ± 1.78 |  |  |  |  | 
3 | CC[C@H](C)[C@H](NC(=O)[C@H](CCCCN)NC(=O)[C@@H]1CCCN1C(=O)[C@H](CC(C)C)NC(=O)[C@@H](NC(=O)[C@H](CO)NC(=O)[C@H](CCC(=O)N1CCCCC1)NC(=O)[C@H](CC(C)C)NC(=O)[C@H](CC(=O)O)NC(=O)[C@H](CC(=O)O)NC(=O)[C@H](Cc1ccccc1)NC(=O)[C@@H](NC(=O)[C@H](CCCCN)NC(=O)[C@@H]1CCCN1C(=O)[C@H](Cc1ccccc1)NC(=O)[C@H](Cc1ccccc1)NC(=O)[C@H](CCCCNC(C)=O)NC(=O)[C@H](C)N)[C@@H](C)CC)[C@@H](C)CC)C(=O)N[C@@H](CC(C)C)C(N)=O [239-4-Ac] (H-AK(Ac)FFPKIFDDLE(Piperidide)SILPKIL-NH2) |  |  |  |  |  |  |  |  |  |  |  |  | degradation in human serum, comparison in words ([2]; 50% human serum, HPLC peak area, up to 6 h (239-4-Ac) or 24 h): significantly more prone to degradation
4 | CC[C@H](C)[C@H](NC(=O)[C@H](CCCCN)NC(=O)[C@@H]1CCCN1C(=O)[C@H](CC(C)C)NC(=O)[C@@H](NC(=O)[C@H](CO)NC(=O)[C@H](CCC(=O)N1CCCCC1)NC(=O)[C@H](CC(C)C)NC(=O)[C@H](CC(=O)O)NC(=O)[C@H](CC(=O)O)NC(=O)[C@H](Cc1ccccc1)NC(=O)[C@@H](NC(=O)[C@H](CCCCN)NC(=O)[C@@H]1CCCN1C(=O)[C@H](Cc1ccccc1)NC(=O)[C@@H](N)Cc1ccccc1)[C@@H](C)CC)[C@@H](C)CC)C(=O)N[C@@H](CC(C)C)C(N)=O [174-3] (H-FFPKIFDDLE(Piperidide)SILPKIL-NH2) | 32.6 |  | 51.52 | 95.8 | 87 | 57.6 ± 8.46 | 52.9 ± 7.31 | 39.5 | 24.2 ± 2.13 | 28.9 ± 3.53 | 29.2 ± 2.29 | 17.7 ± 2.86 | IC50 (H460 cell line [7]): 23.7 ± 1.03 µM
5 | FFPLIFGALSSILPKIL-NH2 [compound 111, Temporin‐HLa] | 8.03 ± 1.1 | 6.03 ± 0.18 | 6.59 | 26.3 ± 2.59 | 13.6 ± 0.91 | 7.37 ± 0.7 | 13.5 ± 0.8 | 11 ± 1.06 | 5.54 ± 0.04 | 5.14 ± 0.22 | 5.24 ± 0.15 | 5.17 ± 0.16 | 
6 | CC[C@H](C)[C@H](NC(=O)[C@H](CCCCN)NC(=O)[C@@H]1CCCN1C(=O)[C@H](CC(C)C)NC(=O)[C@@H](NC(=O)[C@H](CO)NC(=O)[C@H](CCC(=O)N1CCCCC1)NC(=O)[C@H](CC(C)C)NC(=O)[C@H](CC(=O)O)NC(=O)[C@H](CC(=O)O)NC(=O)[C@H](Cc1ccccc1)NC(=O)[C@@H](NC(=O)[C@H](CCCCN)NC(=O)[C@@H]1CCCN1C(=O)[C@H](Cc1ccccc1)NC(=O)[C@H](Cc1ccccc1)NC(=O)[C@H](CCCCN)NC(=O)[C@H](C)N)[C@@H](C)CC)[C@@H](C)CC)C(=O)N[C@@H](CC(C)C)C(=O)NCC(=O)N1CCC[C@H]1C(=O)N[C@@H](CC(C)C)C(=O)NCC(=O)N[C@@H](CC(C)C)C(=O)N[C@@H](C)C(=O)NCC(=O)NCCOCCOCCOCCOCCC(=O)NCCOCCOCCOCCOCCC(=O)NCCOCCOCCOCCOCCC(=O)NCCOCCOCCOCCOCCC(N)=O [compound 247] (H-AKFFPKIFDDLE(Piperidide)SILPKILGPLGLAG[PEG4][PEG4][PEG4][PEG4]-NH2) | 51.9 ± 5.64 | 29.2 ± 1.33 | >100 | > 100 | > 100 |  | > 100 |  |  |  |  |  | 
7 | CC[C@H](C)[C@H](NC(=O)[C@H](CCCCN)NC(=O)[C@@H]1CCCN1C(=O)[C@H](CC(C)C)NC(=O)[C@@H](NC(=O)[C@H](CO)NC(=O)[C@H](CCC(=O)N1CCCCC1)NC(=O)[C@H](CC(C)C)NC(=O)[C@H](CC(=O)O)NC(=O)[C@H](CC(=O)O)NC(=O)[C@H](Cc1ccccc1)NC(=O)[C@@H](NC(=O)[C@H](CCCCN)NC(=O)[C@@H]1CCCN1C(=O)[C@H](Cc1ccccc1)NC(=O)[C@H](Cc1ccccc1)NC(=O)[C@H](CCCCN)NC(=O)[C@H](C)N)[C@@H](C)CC)[C@@H](C)CC)C(=O)N[C@@H](CC(C)C)C(=O)NCC(=O)N1CCC[C@H]1C(=O)N[C@@H](CC(C)C)C(=O)NCC(=O)N[C@@H](CC(C)C)C(=O)N[C@@H](C)C(=O)NCC(=O)NCCOCCOCCOCCOCCC(=O)NCCOCCOCCOCCOCCC(=O)NCCOCCOCCOCCOCCC(=O)NCCOCCOCCOCCOCCC(=O)NCCOCCOCCOCCOCCC(=O)NCCOCCOCCOCCOCCC(N)=O [compound 270] (H-AKFFPKIFDDLE(Piperidide)SILPKILGPLGLAG[PEG4][PEG4][PEG4][PEG4][PEG4][PEG4]-NH2) | > 100 |  | >100 | > 100 | > 100 |  | > 100 |  | 35.3 ± 1.83 | 56.44 ± 0.25 | 54.7 ± 3.28 | 28.1 ± 1.42 | inhibition of HEK-293 cells at 100 µM (HEK-293 normal cell line; 100): 40%; IC95 value, H460 (H460 cell line [1]): ≈ 55 µM; remaining at 24 h, 1.5 mM ([2]; 50% human serum (50 µL 3 mM compound + 50 µL serum), 24 h, ethanol precipitation, analytical HPLC 214 nm peak area vs 0 h, read-out: remaining ratio in human serum after 24 h): ~100%; IC50 (H460 cell line [7]): 53.6 ± 2.04 µM; larval survival after 5 days, 50 µM ([8]; 10 µL injected into hemolymph, 50 µM, 37 °C, day 5): 77.8%; larval survival after 5 days, 80 µM ([8]; 10 µL injected into hemolymph, 80 µM, 37 °C, day 5): 88.9%; larval survival after 5 days, 120 µM ([8]; 10 µL injected into hemolymph, 120 µM, 37 °C, day 5): 77.8%; melanization of larvae ([8]; 50, 80 or 120 µM, 5 days): No melanization
